Reference: article PMC8921064 (Archives of Toxicology, 2022)
“And” between values parts separate entries of the source, which are not always exact repeats. Equal values may be shown once.

Experiments:
[1] = tested on: human liver microsomes (HLM); test: Human liver microsomal incubation, metabolite formation quantified by UPLC; settings: HLM
Experimental: (§1) The incubation mixtures were prepared and incubated in glass vials to avoid plastic binding of the substrates. The glass vials were capped to prevent substrate loss due to volatility. After preincubation of the incubation mixture at 37 °C for 1 min, the enzymatic reaction was initiated by adding microsomes to the incubation mixture which was subsequently incubated at 37 °C for 20 min. The reaction was terminated by adding 100 µl ice-cold acetonitrile followed by vortexing. After 5 min centrifugation at 5000 rpm (4000 × g), 4 °C, the supernatant was collected for ultraperformance liquid chromatography (UPLC) analysis. […] Therefore, a diisopropylether (DIPE) extraction of the metabolites was performed after the reaction was stopped by the addition of 20 µl 10% HClO4. To this end, the incubation mixture (total volume of 220 µl) was extracted three times with 1 ml DIPE. Each time, the upper organic layer was collected and the DIPE was subsequently evaporated from the combined organic fractions with a gentle stream of nitrogen. The residues were dissolved in 100 µl methanol and analyzed by UPLC.
(§2) The metabolites formed were analyzed and quantified using an Acquity UPLC system equipped with a photodiode array (PDA) detector (Waters, Milford, MA). The metabolites and their parent compound were separated on a reverse phase Acquity UPLC® BEH C18 column ([…], 1.7 µm, Waters, Milford, MA) and detected at wavelengths ranging from 190 to 400 nm. Eluent A was nano-pure water containing 0.1% trifluoroacetic acid (v/v), and eluent B was acetonitrile containing 0.1% trifluoroacetic acid (v/v). The gradient elution started from 90% A and 10% B applied from 0.0 min to 0.5 min, which was changed to 0% A and 100% B from 0.5 to 15.5 min and then kept at 0% A and 100% B from 15.5 min to 18.5 min, changed back to 90% A and 10% B from 18.5 to 18.6 min and then maintained at the starting conditions from 18.6 min until 22 min. The total run time was 22 min using a flow rate of 0.6 ml/min. The temperature of the column was set at 40 °C and that of the autosampler at 10 °C during the UPLC analysis. The injection volume was 3.5 µl. Metabolites were quantified using their peak area at the wavelength specified in Table 1, using calibration curves of available reference compounds. Metabolites were identified by comparing their retention time (RT) and UV spectrum to those of reference chemicals on UPLC. When reference chemicals were not available, metabolite identification by gas chromatography-triple quadrupole mass spectrometry (GC–MS/MS) was performed. The minor metabolites were identified by elution time and mass spectra both on UPLC and GC–MS/MS, and by comparison with available elution and spectral information from the literature.
(§3) The metabolite concentrations in the microsomal incubation mixtures as quantified by UPLC were used to calculate the rate of the enzymatic conversions in pmol/min/mg microsomal protein. The kinetic parameters KM and Vmax were obtained using a nonlinear regression curve fit applying the Michaelis Menten equation in GraphPad Prism 5 (San Diego, USA). To compare the catalytic efficiency of formation of the different metabolites the intrinsic clearance (Clint) was calculated as Vmax divided by KM.

[2] = tested on: rat liver microsomes (RLM); test: Rat liver microsomal incubation, metabolite formation quantified by UPLC; settings: RLM
Experimental: as §1, §2, §3

[3] = tested on: Salmonella typhimurium TA100; test: Reverse mutation assay (Ames test), TA100; settings: positive control, 650 µg/plate MMS; mean ± SD of 3 plates
Experimental: (§4) Six concentrations of each compound were tested in triplicate in the absence and presence of 5% (v/v) S9-mix prepared from the livers of Aroclor 1254 treated Sprague–Dawley rats. The S9-mix contained 4 mM NADP, 5.8 mM glucose-6-phosphate, 0.1 M sodium phosphate pH 7.4, 8 mM MgCl2, 33 mM KCl and 5% S9 homogenate. Fresh bacterial cultures were prepared overnight to reach 10^9 cells/ml. The following solutions were pre-incubated in a rotating incubator at 70 rpm and 37 °C, and contained either 0.5 ml S9-mix (in case of S9 presence) or 0.5 ml 0.1 M potassium phosphate pH 7.4 (in case of S9 absence), 0.1 ml of a fresh bacterial culture (10^9 cells/ml) of TA98 or TA100, and 10–100 µg test compound. Top agar was melted and heated to 45 °C. After preincubation, the substrate solutions were added to 3 ml of the molten top agar and mixed by vortexing and the top agar mixture was poured onto a minimal glucose agar plate. After solidification of the top agar, the plates were incubated at 37 °C for 48 h. The number of revertant colonies per plate was automatically counted with the Instem Sorcerer Colony Counter (Staffordshire, UK). In the absence of S9-mix, 2-nitrofluorene (NF) and methylmethanesulfonate (MMS) were tested as positive controls for incubations with TA98 and TA100, respectively. In the presence of S9-mix, 2-aminoanthracene (2AA) was tested as a positive control in both TA98 and TA100. DMSO was tested as a solvent control in both tester strains.

[4] = tested on: Salmonella typhimurium TA98; test: Reverse mutation assay (Ames test), TA98; settings: positive control, 10 µg/plate NF; mean ± SD of 3 plates
Experimental: as §4, with “and 10–100 µg test compound.” left out

[5] = substrate 1-N-hexylphenanthrene
[6] = 0 to 600 μM, 20 min, NM = no metabolism
[7] = substrate 10-Methyl-9-ethylphenanthrene

CCc1ccc2c(ccc3ccccc32)c1 [2-Ethylphenanthrene]
Vmax, formation of 2-(1-Hydroxyethyl)-phenanthrene RT = 6.21 min ([1]; substrate 2-Ethylphenanthrene): 468.8 ± 50.3 pmol/min/mg microsomal protein | Vmax, formation of Dihydro-2-ethylphenanthrene-diol RT = 5.16 min ([1]; substrate 2-Ethylphenanthrene): 18.4 ± 3.2 pmol/min/mg microsomal protein | Vmax, formation of Dihydro-2-ethylphenanthrene-diol RT = 5.29 min ([1]; substrate 2-Ethylphenanthrene): 22.1 ± 3.0 pmol/min/mg microsomal protein | Vmax, formation of Unknown metabolite RT = 9.38 min ([1]; substrate 2-Ethylphenanthrene): 37.2 ± 6.5 pmol/min/mg microsomal protein | Vmax, formation of 2-(1-Hydroxyethyl)-phenanthrene RT = 6.21 min ([2]; substrate 2-Ethylphenanthrene): 3149.0 ± 266.1 pmol/min/mg microsomal protein | Vmax, formation of 2-Ethylphenanthrol RT = 7.57 min ([2]; substrate 2-Ethylphenanthrene): 16.5 ± 3.1 pmol/min/mg microsomal protein | Vmax, formation of 2-Ethylphenanthrol RT = 7.74 min ([2]; substrate 2-Ethylphenanthrene): 16.6 ± 2.7 pmol/min/mg microsomal protein | Vmax, formation of 2-Ethylphenanthrol RT = 7.89 min ([2]; substrate 2-Ethylphenanthrene): 11.8 ± 2.4 pmol/min/mg microsomal protein | Vmax, formation of Dihydro-2-ethylphenanthrene-diol RT = 4.6 min ([2]; substrate 2-Ethylphenanthrene): 33.9 ± 11.8 pmol/min/mg microsomal protein | Vmax, formation of Dihydro-2-ethylphenanthrene-diol RT = 5.29 min ([2]; substrate 2-Ethylphenanthrene): 42.9 ± 3.5 pmol/min/mg microsomal protein | Vmax, formation of Unknown metabolite RT = 9.38 min ([2]; substrate 2-Ethylphenanthrene): 238.0 ± 23.9 pmol/min/mg microsomal protein

CCc1cc2ccccc2c2ccccc12 [9-Ethylphenanthrene]
Vmax, formation of 9-(1-Hydroxyethyl)-phenanthrene RT = 6.20 min ([1]; substrate 9-Ethylphenanthrene): 267.7 ± 17.4 pmol/min/mg microsomal protein | Vmax, formation of 9-(2-Hydroxyethyl)-phenanthrene RT = 6.00 min ([1]; substrate 9-Ethylphenanthrene): 61.4 ± 3.3 pmol/min/mg microsomal protein | Vmax, formation of 9-Ethylphenanthrol RT = 7.42 min ([1]; substrate 9-Ethylphenanthrene): 12.8 ± 1.1 pmol/min/mg microsomal protein | Vmax, formation of 9-Ethylphenanthrol RT = 7.58 min ([1]; substrate 9-Ethylphenanthrene): 29.1 ± 2.8 pmol/min/mg microsomal protein | Vmax, formation of Dihydro-9-ethylphenanthrene-diol RT = 3.81 min ([1]; substrate 9-Ethylphenanthrene): 15.2 ± 0.8 pmol/min/mg microsomal protein | Vmax, formation of Dihydro-9-ethylphenanthrene-diol RT = 3.88 min ([1]; substrate 9-Ethylphenanthrene): 23.5 ± 1.4 pmol/min/mg microsomal protein | Vmax, formation of 9-(1-Hydroxyethyl)-phenanthrene RT = 6.20 min ([2]; substrate 9-Ethylphenanthrene): 1206 ± 47.9 pmol/min/mg microsomal protein | Vmax, formation of 9-(2-Hydroxyethyl)-phenanthrene RT = 6.00 min ([2]; substrate 9-Ethylphenanthrene): 37.0 ± 2.26 pmol/min/mg microsomal protein | Vmax, formation of 9-Ethylphenanthrol RT = 7.42 min ([2]; substrate 9-Ethylphenanthrene): 29.7 ± 3.1 pmol/min/mg microsomal protein | Vmax, formation of 9-Ethylphenanthrol RT = 7.58 min ([2]; substrate 9-Ethylphenanthrene): 56.6 ± 1.8 pmol/min/mg microsomal protein | Vmax, formation of 9-Ethylphenanthrol RT = 7.93 min ([2]; substrate 9-Ethylphenanthrene): 22.8 ± 1.8 pmol/min/mg microsomal protein | Vmax, formation of Dihydro-9-ethylphenanthrene-diol RT = 3.81 min ([2]; substrate 9-Ethylphenanthrene): 12.0 ± 2.1 pmol/min/mg microsomal protein | Vmax, formation of Unknown metabolite RT = 9.35 min ([2]; substrate 9-Ethylphenanthrene): 52.7 ± 6.2 pmol/min/mg microsomal protein

COS(C)(=O)=O [MMS, methylmethanesulfonate, reference compound]
His + revertant colonies TA100 without S9-mix [3]: 868±70 and 823±58 and 783±46

O=[N+]([O-])c1ccc2c(c1)Cc1ccccc1-2 [NF, 2-nitrofluorene, reference compound]
His + revertant colonies TA98 without S9-mix [4]: 1590±295

CCCCCCc1cccc2c1ccc1ccccc12 [1-N-hexylphenanthrene, 1-n-Hexylphenanthrene]
Vmax, formation of 1-Hydroxyhexyl-phenanthrene RT = 8.45 min [1, 5]: 48.3 ± 6.1 pmol/min/mg microsomal protein | Vmax, formation of 1-Hydroxyhexyl-phenanthrene RT = 8.82 min [1, 5]: 44.2 ± 4.8 pmol/min/mg microsomal protein | Vmax, formation of 1-Hydroxyhexyl-phenanthrene RT = 8.45 min [2, 5]: 103.4 ± 18.1 pmol/min/mg microsomal protein | Vmax, formation of 1-Hydroxyhexyl-phenanthrene RT = 8.58 min [2, 5]: 54.8 ± 5.2 pmol/min/mg microsomal protein | Vmax, formation of 1-Hydroxyhexyl-phenanthrene RT = 8.82 min [2, 5]: 25.6 ± 1.8 pmol/min/mg microsomal protein | Vmax, formation of 1-Hydroxyhexyl-phenanthrene RT = 9.13 min [2, 5]: 11.7 ± 0.9 pmol/min/mg microsomal protein

CCCCCCCCCCCCc1cccc2c1ccc1ccccc12 [1-N-dodecylphenanthrene, 1-n-dodecylphenanthrene]
Metabolic conversion (metabolites formed) [1, 6]: No metabolic conversion was observed | Metabolic conversion (metabolites formed) [2, 6]: No metabolic conversion was observed

CCc1c(C)c2ccccc2c2ccccc12 [10-Methyl-9-ethylphenanthrene]
Vmax, formation of 9-(1-Hydroxyethyl)-10-methylphenanthrene RT = 6.65 min [1, 7]: 187.1 ± 45.2 pmol/min/mg microsomal protein | Vmax, formation of 9-(2-Hydroxyethyl)-10-methylphenanthrene RT = 6.5 min [1, 7]: 12.9 ± 1.8 pmol/min/mg microsomal protein | Vmax, formation of 9-Ethyl-10-(1-hydroxymethyl)-phenanthrene RT = 6.90 min [1, 7]: 85.9 ± 17.4 pmol/min/mg microsomal protein | Vmax, formation of Dihydro-10-methyl-9-ethylphenanthrene-diol RT = 4.29 min [1, 7]: 7.2 ± 1.7 pmol/min/mg microsomal protein | Vmax, formation of Dihydro-10-methyl-9-ethylphenanthrene-diol RT = 4.34 min [1, 7]: 10.5 ± 2.5 pmol/min/mg microsomal protein | Vmax, formation of 9-(1-Hydroxyethyl)-10-methylphenanthrene RT = 6.65 min [2, 7]: 630.2 ± 81.4 pmol/min/mg microsomal protein | Vmax, formation of 9-(2-Hydroxyethyl)-10-methylphenanthrene RT = 6.5 min [2, 7]: 21.0 ± 3.1 pmol/min/mg microsomal protein | Vmax, formation of 9-Ethyl-10-(1-hydroxymethyl)-phenanthrene RT = 6.90 min [2, 7]: 85.8 ± 11.6 pmol/min/mg microsomal protein | Vmax, formation of 9-Ethyl-10-methylphenanthrol RT = 7.82 min [2, 7]: 65.6 ± 9.8 pmol/min/mg microsomal protein | Vmax, formation of 9-Ethyl-10-methylphenanthrol RT = 8.3 min [2, 7]: 29.4 ± 7.7 pmol/min/mg microsomal protein | Vmax, formation of Dihydro-10-methyl-9-ethylphenanthrene-diol RT = 4.29 min [2, 7]: 6.4 ± 2.7 pmol/min/mg microsomal protein | Vmax, formation of Dihydro-10-methyl-9-ethylphenanthrene-diol RT = 4.34 min [2, 7]: 8.09 ± 1.6 pmol/min/mg microsomal protein
